Assay results as given in PMC5025856, “A Novel Assay for Screening Inhibitors Targeting HIV Integrase LEDGF/p75 Interaction Based on Ni^2+ Coated Magnetic Agarose Beads” (Scientific Reports, 2016).
Where two headings read alike, the source gives them in different places.

Key:
His6-tagged GST protein = biological target: T1, His6-tagged GST protein (Schistosoma japonicum, UniProt P08515); experiment: Non-specificity counterscreen with His6-GST protein; conditions: dose-response, 10 nM His6-tagged GST protein
T1 construct: made in house; host or cells: bacterial expression vector pGEX-4T-1
Description: The false positive compound identified in this HTS may affect the assay by forming hydrogen bonds interaction with His6-tag of IN CCD or forming chelating complexes with Ni^2+-ion covering magnetic beads surface. […] Any compound that interfered with bead or with the His6-tag of double-tagged protein would result in a decreased signal in the counterscreen assay.
A counterscreen was carried out as described above, with the replacement of purified HIV-1 IN CCD and LEDGF/p75 IBD with 10 nM His6-tagged GST protein.

LEDGF/p75 = LEDGF/p75 (Homo sapiens, UniProt O75475); experiment: Biolayer interferometry (BLI) binding to LEDGF/p75; conditions: ForteBIO Octet, 1:1 Langmuir global fit, read-out: dissociation constant Kd
Description: Biolayer interferometry (BLI) was used to study the kinetics of dexlansoprazole binding to LEDGF/p75 on a ForteBio Octet, according to the manufacturer’s instructions and published methods. Streptavidin biosensors tips were pre-wetted with buffer and immobilized with biotinylated protein. The biosensors were then transferred into wells containing dexlansoprazole in serial dilutions from 32 μM to 1 μM concentrations. Protein–ligand binding was measured by monitoring the changes in the interferometric profile of the wavelength of light passing through the sensor. Binding curves were analyzed using ForteBIO software, which performs a global fit according to the 1:1 Langmuir model to obtain the kinetic rate constants for each set of interaction conditions.

[1] = biological target: T2, PPI between HIV-1 IN CCD and LEDGF/p75 IBD (Homo sapiens, UniProt O75475); experiment: IN CCD-LEDGF/p75 IBD PPI assay based on Ni-NTA magnetic agarose beads; type: binding
T2 construct: The IN CCD protein used contained HIV IN residues 50–212 fused with an C-terminal His6-tag; a fusion of LEDGF/p75 residues 347–471 with the N-terminal GST-tag; made in house; host or cells: bacterial expression vectors pET28a (IN CCD) and pGEX-4T-1 (IBD)
Description: In the assay, GST–tagged LEDGF/p75 IBD (yellow) is mixed with His6-tagged IN CCD (green) at the desired concentrations. After incubation at room temperature, a double-tagged PPI complex with N-terminal GST-tag and C-terminal His6-tag is established between two protein partners. The PPI complex is captured by Ni^2+-coated magnetic beads (red) through His6-tag, followed by the addition of alkaline phosphatase conjugated anti-GST antibody (dark red). Therefore, the product could be measured by the alkaline phosphatase conjugated-coupled enzyme reaction (Fig. 1A).
The IN CCD-LEDGF/p75 IBD interaction assay was developed based on Ni-NTA Magnetic Agarose Beads (BEAVER Nano-technologies Co., Ltd. Suzhou, China). The assay was optimized for use in 96-well nonbinding surface microplates (Corning, New York, USA) in a final volume of 100 μl per well. Briefly, the assay works as follows. Compounds and proteins were diluted to 10× and 5× working solutions in the 1× assay buffer (25 mM Tris-HCl, pH 7.4, 150 mM NaCl, 1 mM MgCl2, 0.05% BSA[v/w]) respectively. Firstly, 10 μl compound dilution, 50 μl 1× buffer, 20 μl each of protein dilutions were pipetted into the wells. The plate was sealed and left to incubate at 200 rpm for 3 h at RT. Secondly, 10 μl of Ni-NTA Magnetic Agarose Beads were added followed by incubating at 900 rpm for 30 min at RT. Thirdly, the wells holding the mixture were placed on a magnetic concentrator, the supernatant was discarded, and the wells were washed 3 times with 200 μl wash buffer (50 mM sodium phosphate, pH 7.4, 150 mM NaCl, 0.005% tween-20[v/v], 20 mM imidazole). Fourthly, the wells were incubated with 100 μl of a 1:4000 solution of mouse anti-GST antibody (Sigma, USA) in antibody dilution buffer (50 mM Sodium Phosphate, pH 7.4, 150 mM NaCl, 0.005% Tween-20[v/v], 0.5%[w/v] BSA) at 900 rpm for 30 min at 37 °C, followed by washing three times. Fifthly, the wells were incubated with 100 μl of a 1:5000 solution of rabbit anti-mouse IgG alkaline phosphatase conjugated antibody (Sigma, USA) in antibody dilution buffer at 900 rpm for 30 min at 37 °C, followed by washing 3 times. Lastly, the color reaction was developed with 100 μl substrate buffer (10 mM diethanolamine, pH 9.8, 0.5 mM MgCl2, 8 mM p-NPP) for 30 min at 37 °C. The absorbance ([…]) of each well was measured in an Enspire multimode reader (PerkinElmer, USA). The reproducibility, signal stability, and robustness of this PPI assay were determined to ensure its compatible for HTS. Furthermore, IL23, an IN CCD-LEDGF/p75 IBD PPI inhibitor, was used to validate the assay efficiency.
In total, 1000 compounds selected at random from ‘The Spectrum Collection’ were purchased from National compound resource center. The library, which is composed of 2,320 compounds in 10 mM DMSO solution, lists primarily FDA-approved human therapeutic drugs, drug-like compounds, and natural products. Each compound was diluted in DMSO to reach a concentration of 300 μM, which was used as the 10× compound stock. In all screening campaigns, the negative control was based on the use of PPI binding mutant controls (single-point mutation) that would prevent the PPI from forming, and the positive control contained 10% (v/v) DMSO only. The negative and positive control with 8 replicates wells each located randomly among the 96 wells of each plate.
The z′ factor, signal-to-noise ratio (S/N), signal-to-background ratio (S/B), signal window (SW), and coefficient of variation (CV) were calculated and then compared with the minimum pass criteria (z′ >0.5, S/N>10, S/B > 3, SW >2, CV < 20%)[39][40][41][42]. The “hits” for PPI assays were classified as compounds that led to more than 60% disruption of a PPI complex. All HTS data were processed using Excel (Microsoft Corp.) and visualized using Prism 5.0 (GraphPad Software).

cancer xenograft models = system: cancer xenograft models; set-up: method as in PMID 25093583; conditions: primary screen hit in cancer xenograft models; cited from earlier work
[2] = biological target: HIV-1 integrase catalytic core domain (IN CCD), residues 50-212, F185K, C-terminal His6-tag (HIV-1); experiment: ELISA; ELISA-based magnetic bead assay: GST-IBD and His6-CCD mixed in solution (25 mM Tris-HCl pH 7.4, 150 mM NaCl, 1 mM MgCl2, 0.05% BSA, 3 h RT), complex captured on Ni-NTA magnetic agarose beads by the His6-tag, detected with anti-GST antibody and alkaline phosphatase conjugate, absorbance read-out (A405); optimal conditions, ratio 1:1
[3] = biological target: HIV-1 IN CCD W131E (residues 50-212, F185K, W131E), C-terminal His6-tag (HIV-1); experiment: as above
[4] = at 30 μM for each proton-pump inhibitor, PPI between LEDGF/p75 IBD and IN CCD, read-out: Inhibition (%)
[5] = IN CCD-LEDGF/p75 IBD PPI, magnetic-beads assay, dose response, read-out: IC50

Compound | inhibition at 30 µM [1, 4] [%] | IC50 [1, 5] [µM] | further results
Cc1c(OCC(F)(F)F)ccnc1C[S@@+]([O-])c1nc2ccccc2[nH]1 [Dexlansoprazole] | 75.2 |  | effect on the assay system (counterscreen) (His6-tagged GST protein): almost had no effect; Kd (LEDGF/p75): 0.33 µM; IC50 [1]: 4.8 µM; inhibition at 30 µM ([1]; confirmatory screening, triplicate, 30 μM, read-out: inhibitory rate): 90.3%; inhibitory activity against IN CCD-LEDGF/p75 IBD interaction (in words) ([1]; qualitative statement): moderate inhibitory activity; anti-cancer activity (cancer xenograft models): poor
COc1ccc2nc([S@@+]([O-])Cc3ncc(C)c(OC)c3C)[nH]c2c1 [Esomeprazole] | 22 | > 30 | 
Cc1c(OCC(F)(F)F)ccnc1C[S+]([O-])c1nc2ccccc2[nH]1 (centres unmarked) [Lansoprazole] | -86.2 |  | 
COc1ccc2[nH]c([S+]([O-])Cc3ncc(C)c(OC)c3C)nc2c1 (centres unmarked) [Omeprazole] | 26.2 | > 30 | 
COc1ccnc(C[S+]([O-])c2nc3ccc(OC(F)F)cc3[nH]2)c1OC (centres unmarked) [Pantoprazole] | -23.9 |  | 
COCCCOc1ccnc(C[S+]([O-])c2nc3ccccc3[nH]2)c1C (centres unmarked) [Rabeprazole] | 14.5 | > 30 | 
COc1ccc2[nH]c([S+]([O-])Cc3ncc(C)c(OC)c3C)nc2n1 (centres unmarked) [Tenatoprazole] | 33.6 | > 30 | 
LEDGF/p75 IBD D366N (residues 347-471), N-terminal GST-tag (from UniProt O75475 347-471) (domain or fragment) |  |  | A405 signal [2]: < 0.01 A405
LEDGF/p75 integrase binding domain (LEDGF/p75 IBD), residues 347-471, N-terminal GST-tag (from UniProt O75475 347-471) (domain or fragment) |  |  | A405 signal [2]: 0.66 A405; A405 signal [3]: < 0.01 A405
